pIC50: −log10 of the molar value.

The target of the first data set is T1, Pim-1 (Homo sapiens, UniProt P11309).
T1 construct: host or cells: bacteria
T1 sequence (P11309 whole entry): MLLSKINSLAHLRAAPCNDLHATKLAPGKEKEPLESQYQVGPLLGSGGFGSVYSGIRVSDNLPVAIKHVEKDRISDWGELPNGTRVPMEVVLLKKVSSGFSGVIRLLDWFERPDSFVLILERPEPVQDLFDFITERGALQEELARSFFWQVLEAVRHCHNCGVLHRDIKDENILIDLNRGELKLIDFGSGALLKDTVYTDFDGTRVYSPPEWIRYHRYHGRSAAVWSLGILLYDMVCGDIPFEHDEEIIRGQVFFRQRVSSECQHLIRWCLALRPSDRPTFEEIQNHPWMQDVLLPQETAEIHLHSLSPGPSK
Kind of data set: ADP-Glo kinase inhibition assay, Pim-1. It is filed as biochemical. The settings on record: 1 μM compound, 10 μM ATP, duplicate; read-out: PIM1 % residual activity at 1 μM. How it is done: (§1) Kinase enzymatic activities were assayed in 384 well plates using the ADP-GloTM assay kit (Promega, Madison, WI, USA) according to the manufacturer’s guidance. Briefly, the reactions were carried out in a final volume of 6 μL for 30 min at 30 °C in an appropriate kinase buffer (10 mM MgCl2, 1 mM EGTA, 1 mM DTT, 25 mM Tris-HCl pH 7.5, 50 μg/mL heparin), with either protein or peptide as substrate in the presence of 10 μM ATP (40 mM Tris pH 7.5, 20 mM MgCl2 and 0.1 mg/mL of BSA). Afterward, 6 μL of ADP-GloTM Kinase Reagent was added to stop the kinase reaction. After an incubation time of 50 min at room temperature (RT), 12 μL of Kinase Detection Reagent was added for 1 h at RT. The transmitted signal was measured using the Envision (Perkin Elmer, Waltham, MA, USA) microplate luminometer and expressed in relative light unit (RLU). In order to determine the half maximal inhibitory concentration (IC50), the assays were performed in duplicate in the absence or presence of increasing doses of the tested compounds. GraphPad Prism6 software (GraphPad Software, San Diego, CA, USA) was used to fit dose–response curves and to determine the IC50 values. Kinase activities are expressed in the percentage of maximal activity, i.e., measured in the absence of an inhibitor. Peptide substrates were obtained from Proteogenix (Schiltigheim, France).
(§2) The following protein kinases were analyzed in this study: CDK5/p25 (human, recombinant, expressed in bacteria) was assayed with 0.8 μg/μL of histone H1 as substrate; CDK9/CyclinT (human, recombinant, expressed by baculovirus in Sf9 insect cells) were assayed with 0.27 μg/μL of the following peptide: […], as substrate; CK1ε (human, recombinant, expressed by baculovirus in Sf9 insect cells) was assayed with 0.022 μg/μL of the following peptide: […]pAYSITA (“Sp” stands for phosphorylated serine) as CK1-specific substrate; GSK3β (human, recombinant, expressed by baculovirus in Sf9 insect cells) were assayed with 0.010 μg/μL of GS-1 peptide, a GSK-3-selective substrate ([…]pEDEEE); Haspin-kd (human, kinase domain, amino acids 470–798, recombinant, expressed in bacteria) was assayed with 0.007 μg/μL of histone H3 (1–21) peptide ([…]) as substrate; Pim-1 (human proto-oncogene, recombinant, expressed in bacteria) was assayed with 0.8 μg/μL of histone H1 as substrate; MmCLK1 (from Mus musculus, recombinant, expressed in bacteria) was assayed with 0.027 μg/μL of the following peptide: […] as substrate; RnDYRK1A-kd (Rattus norvegicus, amino acids 1–499 including the kinase domain, recombinant, expressed in bacteria, DNA vector kindly provided by Dr. W. Becker, Aachen, Germany) was assayed with 0.033 μg/μL of the following peptide: […] as substrate.
Regarding `Cn1ncc2cc3cnccc3c(N)c21` [Compound 2b, 1-Methyl-1H-pyrazolo[3,4-g]isoquinolin-9-amine], the remaining activity at 1 µM worked out at 91%.

The same data set, now with this note: 10 μM compound, 10 μM ATP, duplicate; read-out: PIM1 % residual activity at 10 μM.
For `Cn1ncc2cc3cnccc3c(N)c21` [Compound 2b, 1-Methyl-1H-pyrazolo[3,4-g]isoquinolin-9-amine], the remaining activity at 10 µM was determined as 71%.

In a further data set the target is T2, Haspin-kd (human, kinase domain, amino acids 470–798) (Homo sapiens, UniProt Q8TF76).
T2 construct: Haspin-kd (human, kinase domain, amino acids 470–798, recombinant, expressed in bacteria); host or cells: bacteria
T2 sequence (Q8TF76 470-798): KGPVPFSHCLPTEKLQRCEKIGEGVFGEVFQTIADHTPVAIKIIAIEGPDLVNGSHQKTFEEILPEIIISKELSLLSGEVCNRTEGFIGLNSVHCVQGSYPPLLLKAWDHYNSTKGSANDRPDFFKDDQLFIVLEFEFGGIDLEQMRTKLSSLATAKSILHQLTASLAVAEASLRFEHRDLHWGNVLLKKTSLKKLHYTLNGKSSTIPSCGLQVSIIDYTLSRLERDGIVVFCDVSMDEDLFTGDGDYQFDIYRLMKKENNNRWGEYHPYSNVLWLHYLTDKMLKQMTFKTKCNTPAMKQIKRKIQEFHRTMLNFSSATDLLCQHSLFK
The data set can be described thus: ADP-Glo kinase inhibition assay, Haspin. In kind it is biochemical. To be noted: 10 μM ATP, duplicate. How it is done:
as §1
Turning to `Cn1ncc2cc3cnccc3c(N)c21` [Compound 2b, 1-Methyl-1H-pyrazolo[3,4-g]isoquinolin-9-amine], the negative-log IC50 (pIC50) is 6.95.

The same data set, now with this note: Haspin vs. DYRK1A, which was more inhibited than CLK1.
Take `Cn1ncc2cc3cnccc3c(N)c21` [Compound 2b, 1-Methyl-1H-pyrazolo[3,4-g]isoquinolin-9-amine]: the “Selectivity Index (SI) Haspin vs. DYRK1A” value amounted to 2.4.

The data set is the same for the next values; noted with them: read-out: Haspin % residual activity at 1 μM.
Turning to `Cn1ncc2cc3cnccc3c(N)c21` [Compound 2b, 1-Methyl-1H-pyrazolo[3,4-g]isoquinolin-9-amine], the remaining activity at 1 µM is 10%.

Still in this data set, the particulars now being: read-out: Haspin % residual activity at 10 μM.
`Cn1ncc2cc3cnccc3c(N)c21` [Compound 2b, 1-Methyl-1H-pyrazolo[3,4-g]isoquinolin-9-amine]: the remaining activity at 10 µM was determined as 14%.

The target in the next data set is T3, CDK9/CyclinT (Homo sapiens, UniProt P50750).
T3 construct: host or cells: Sf9 insect cells (baculovirus)
T3 sequence (O60563 whole entry): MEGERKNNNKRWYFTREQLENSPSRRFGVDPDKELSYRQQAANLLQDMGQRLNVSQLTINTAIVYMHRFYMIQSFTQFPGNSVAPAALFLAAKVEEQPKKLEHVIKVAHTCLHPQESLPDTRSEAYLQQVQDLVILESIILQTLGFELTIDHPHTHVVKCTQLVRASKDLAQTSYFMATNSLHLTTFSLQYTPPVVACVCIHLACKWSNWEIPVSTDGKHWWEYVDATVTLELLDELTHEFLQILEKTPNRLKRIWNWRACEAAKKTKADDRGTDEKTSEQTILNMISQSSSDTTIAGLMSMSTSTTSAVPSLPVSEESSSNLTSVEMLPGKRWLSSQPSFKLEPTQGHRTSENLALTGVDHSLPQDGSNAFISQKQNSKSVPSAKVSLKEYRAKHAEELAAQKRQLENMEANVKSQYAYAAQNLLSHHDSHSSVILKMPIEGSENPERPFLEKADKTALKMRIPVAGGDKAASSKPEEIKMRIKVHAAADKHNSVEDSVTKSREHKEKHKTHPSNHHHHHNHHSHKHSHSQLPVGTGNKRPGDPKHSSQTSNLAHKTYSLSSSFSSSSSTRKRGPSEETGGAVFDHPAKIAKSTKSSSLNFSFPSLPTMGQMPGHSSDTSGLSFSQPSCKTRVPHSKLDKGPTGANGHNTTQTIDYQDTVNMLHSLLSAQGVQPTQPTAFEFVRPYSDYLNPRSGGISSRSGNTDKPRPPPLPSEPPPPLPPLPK
T3 sequence (P50750 whole entry): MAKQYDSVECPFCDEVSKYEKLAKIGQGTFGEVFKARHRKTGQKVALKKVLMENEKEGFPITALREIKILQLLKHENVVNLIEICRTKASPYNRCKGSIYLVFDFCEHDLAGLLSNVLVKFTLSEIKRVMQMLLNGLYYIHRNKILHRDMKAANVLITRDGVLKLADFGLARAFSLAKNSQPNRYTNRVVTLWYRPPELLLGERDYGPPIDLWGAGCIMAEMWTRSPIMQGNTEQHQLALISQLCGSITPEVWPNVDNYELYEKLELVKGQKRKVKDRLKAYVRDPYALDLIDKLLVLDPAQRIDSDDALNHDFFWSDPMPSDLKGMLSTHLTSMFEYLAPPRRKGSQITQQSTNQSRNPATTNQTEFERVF
Kind of data set: ADP-Glo kinase inhibition assay, CDK9/CyclinT. It is filed as biochemical. To be noted: 10 μM ATP, duplicate. How it is done:
as §1, §2
`Cn1ncc2cc3cnccc3c(N)c21` [Compound 2b, 1-Methyl-1H-pyrazolo[3,4-g]isoquinolin-9-amine] showed a pIC50 of 6.24.

Still in this data set, the particulars now being: read-out: CDK9 % residual activity at 1 μM.
As to `Cn1ncc2cc3cnccc3c(N)c21` [Compound 2b, 1-Methyl-1H-pyrazolo[3,4-g]isoquinolin-9-amine], the remaining activity at 1 µM was determined as 39%.

The same data set, now with this note: read-out: CDK9 % residual activity at 10 μM.
As for `Cn1ncc2cc3cnccc3c(N)c21` [Compound 2b, 1-Methyl-1H-pyrazolo[3,4-g]isoquinolin-9-amine], the remaining activity at 10 µM is 15%.

A further data set has as its target T4, RnDYRK1A-kd (Rattus norvegicus, UniProt Q63470).
T4 construct: RnDYRK1A-kd (Rattus norvegicus, amino acids 1–499 including the kinase domain, recombinant, expressed in bacteria); made in house; host or cells: bacteria
Kind of data set: ADP-Glo kinase inhibition assay, DYRK1A. To be noted: 10 μM ATP, duplicate; read-out: DYRK1A IC50. In kind it is biochemical. How it is done:
as §1, §2
For `Cn1ncc2cc3cnccc3c(N)c21` [Compound 2b, 1-Methyl-1H-pyrazolo[3,4-g]isoquinolin-9-amine], the pIC50 was 6.56.

The same data set, now with this note: read-out: DYRK1A % residual activity at 1 μM.
Take `Cn1ncc2cc3cnccc3c(N)c21` [Compound 2b, 1-Methyl-1H-pyrazolo[3,4-g]isoquinolin-9-amine]: the remaining activity at 1 µM was 18%.

The same data set, now with this note: read-out: DYRK1A % residual activity at 10 μM.
`Cn1ncc2cc3cnccc3c(N)c21` [Compound 2b, 1-Methyl-1H-pyrazolo[3,4-g]isoquinolin-9-amine]: the remaining activity at 10 µM was determined as 5%.

The next data set deals with T5, GSK3β (Homo sapiens, UniProt P49841).
T5 construct: host or cells: Sf9 insect cells (baculovirus)
T5 sequence (P49841 whole entry): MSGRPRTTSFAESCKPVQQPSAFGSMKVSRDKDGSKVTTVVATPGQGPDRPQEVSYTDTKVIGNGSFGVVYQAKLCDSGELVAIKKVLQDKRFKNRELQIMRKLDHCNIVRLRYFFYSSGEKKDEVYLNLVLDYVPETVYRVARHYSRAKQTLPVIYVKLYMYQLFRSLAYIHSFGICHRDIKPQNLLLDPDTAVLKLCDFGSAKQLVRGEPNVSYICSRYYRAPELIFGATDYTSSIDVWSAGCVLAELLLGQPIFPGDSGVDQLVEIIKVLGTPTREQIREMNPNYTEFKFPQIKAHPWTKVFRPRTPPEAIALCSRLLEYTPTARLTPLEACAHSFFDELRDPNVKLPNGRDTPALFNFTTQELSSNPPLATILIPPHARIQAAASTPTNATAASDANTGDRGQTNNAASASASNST
Kind of data set: ADP-Glo kinase inhibition assay, GSK3β. To be noted: read-out: GSK3 % residual activity at 1 μM. In kind it is biochemical. As for the experimental part: as §1, §2
On to `Cn1ncc2cc3cnccc3c(N)c21` [Compound 2b, 1-Methyl-1H-pyrazolo[3,4-g]isoquinolin-9-amine], for which the remaining activity at 1 µM was 68%.

Staying with this data set, now noted: read-out: GSK3 % residual activity at 10 μM.
Consider `Cn1ncc2cc3cnccc3c(N)c21` [Compound 2b, 1-Methyl-1H-pyrazolo[3,4-g]isoquinolin-9-amine], for which the remaining activity at 10 µM is 44%.

The target of the next data set is T6, CDK5/p25 (Homo sapiens, UniProt Q00535).
T6 construct: host or cells: bacteria
T6 sequence (Q00535 whole entry): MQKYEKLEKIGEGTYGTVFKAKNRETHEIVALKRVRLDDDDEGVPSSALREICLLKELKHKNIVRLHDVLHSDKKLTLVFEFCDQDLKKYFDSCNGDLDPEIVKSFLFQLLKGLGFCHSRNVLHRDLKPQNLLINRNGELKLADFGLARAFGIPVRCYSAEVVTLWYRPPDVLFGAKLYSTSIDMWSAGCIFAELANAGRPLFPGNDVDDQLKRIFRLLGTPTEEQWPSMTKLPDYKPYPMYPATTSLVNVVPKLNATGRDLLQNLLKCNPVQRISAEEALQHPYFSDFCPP
T6 sequence (Q15078 99-307, further chain): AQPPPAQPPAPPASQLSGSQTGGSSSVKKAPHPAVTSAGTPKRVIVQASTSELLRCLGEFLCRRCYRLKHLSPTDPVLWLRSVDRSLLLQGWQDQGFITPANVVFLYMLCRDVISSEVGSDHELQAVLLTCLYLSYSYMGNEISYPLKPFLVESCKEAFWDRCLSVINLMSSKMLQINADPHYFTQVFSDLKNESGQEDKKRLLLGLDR
Kind of data set: ADP-Glo kinase inhibition assay, CDK5/p25. In kind it is biochemical. The settings on record: read-out: CDK5 % residual activity at 1 μM. As for the experimental part:
as §1, §2
In the case of `Cn1ncc2cc3cnccc3c(N)c21` [Compound 2b, 1-Methyl-1H-pyrazolo[3,4-g]isoquinolin-9-amine], the remaining activity at 1 µM came out at 72%.

Still in this data set, the particulars now being: read-out: CDK5 % residual activity at 10 μM.
Regarding `Cn1ncc2cc3cnccc3c(N)c21` [Compound 2b, 1-Methyl-1H-pyrazolo[3,4-g]isoquinolin-9-amine], the remaining activity at 10 µM turned out to be 60%.

For another data set, the target named is T7, MmCLK1 (Mus musculus, UniProt P22518).
T7 construct: host or cells: bacteria
T7 sequence (P22518 whole entry): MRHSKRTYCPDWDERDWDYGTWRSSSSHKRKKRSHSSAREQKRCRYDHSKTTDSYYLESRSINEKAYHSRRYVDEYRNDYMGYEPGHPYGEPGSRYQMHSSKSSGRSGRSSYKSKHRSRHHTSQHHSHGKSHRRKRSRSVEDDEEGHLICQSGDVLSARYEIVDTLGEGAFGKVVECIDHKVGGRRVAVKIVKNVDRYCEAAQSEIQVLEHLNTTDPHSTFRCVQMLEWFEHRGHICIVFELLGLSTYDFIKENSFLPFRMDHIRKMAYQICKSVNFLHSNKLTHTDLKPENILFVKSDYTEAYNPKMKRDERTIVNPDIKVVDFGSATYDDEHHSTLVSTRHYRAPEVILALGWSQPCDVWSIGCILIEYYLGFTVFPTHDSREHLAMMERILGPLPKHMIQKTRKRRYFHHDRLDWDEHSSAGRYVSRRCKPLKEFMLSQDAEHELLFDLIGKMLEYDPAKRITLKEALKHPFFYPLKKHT
Kind of data set: ADP-Glo kinase inhibition assay, CLK1. In kind it is biochemical. To be noted: 10 μM ATP, duplicate; read-out: CLK1 IC50. As for the experimental part: as §1, §2
For the molecule `Cn1ncc2cc3cnccc3c(N)c21` [Compound 2b, 1-Methyl-1H-pyrazolo[3,4-g]isoquinolin-9-amine], the pIC50 is 6.26.

The data set is the same for the next values; noted with them: read-out: CLK1 % residual activity at 1 μM.
`Cn1ncc2cc3cnccc3c(N)c21` [Compound 2b, 1-Methyl-1H-pyrazolo[3,4-g]isoquinolin-9-amine]: the remaining activity at 1 µM is 36%.

The data set is the same for the next values; noted with them: read-out: CLK1 % residual activity at 10 μM.
Turning to `Cn1ncc2cc3cnccc3c(N)c21` [Compound 2b, 1-Methyl-1H-pyrazolo[3,4-g]isoquinolin-9-amine], the remaining activity at 10 µM stood at 8%.

The target of a further data set is T8, CK1ε (Homo sapiens, UniProt P49674).
T8 construct: host or cells: Sf9 insect cells (baculovirus)
T8 sequence (P49674 whole entry): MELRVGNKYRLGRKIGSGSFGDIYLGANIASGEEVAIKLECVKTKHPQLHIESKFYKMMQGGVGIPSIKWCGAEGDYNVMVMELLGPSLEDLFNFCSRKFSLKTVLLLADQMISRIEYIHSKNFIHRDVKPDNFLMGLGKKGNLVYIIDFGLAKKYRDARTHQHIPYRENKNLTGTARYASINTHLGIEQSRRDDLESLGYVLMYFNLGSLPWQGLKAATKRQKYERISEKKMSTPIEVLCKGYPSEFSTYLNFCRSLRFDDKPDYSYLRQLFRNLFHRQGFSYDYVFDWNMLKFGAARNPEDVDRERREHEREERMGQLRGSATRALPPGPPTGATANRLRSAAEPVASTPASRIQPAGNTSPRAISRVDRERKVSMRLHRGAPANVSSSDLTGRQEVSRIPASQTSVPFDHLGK
The data set can be described thus: ADP-Glo kinase inhibition assay, CK1ε. It is filed as biochemical. To be noted: 1 μM compound, 10 μM ATP, duplicate; read-out: CK1 % residual activity at 1 μM. As for the experimental part:
as §1, §2
For `Cn1ncc2cc3cnccc3c(N)c21` [Compound 2b, 1-Methyl-1H-pyrazolo[3,4-g]isoquinolin-9-amine], the remaining activity at 1 µM amounted to 77%.

The data set is the same for the next values; noted with them: 10 μM compound, 10 μM ATP, duplicate; read-out: CK1 % residual activity at 10 μM.
For the molecule `Cn1ncc2cc3cnccc3c(N)c21` [Compound 2b, 1-Methyl-1H-pyrazolo[3,4-g]isoquinolin-9-amine], the remaining activity at 10 µM was found to be 42%.

System in the next data set: not given
Assay: not given
Conditions: not given
Turning to `Cn1ncc2cc3cnccc3c(N)c21` [Compound 2b, 1-Methyl-1H-pyrazolo[3,4-g]isoquinolin-9-amine], the melting point was 174 to 175 °C.

For the origin of these results see paper PMC9457941, “Synthesis and Kinase Inhibitory Potencies of Pyrazolo[3,4-g]isoquinolines” (Molecules, 2022).
